Reference: patent US20240270698A2, “NOVEL PYRIMIDINE DERIVATIVE AND USE THEREOF” (KOREA RESEARCH INSTITUTE OF CHEMICAL TECHNOLOGY, priority 2019, published 2024)

Experiments:
[1] = molecular target: T1, human recombinant MLK3 protein (Homo sapiens, UniProt Q16584); test: MLK3 kinase activity assay (Eurofins, gamma-33P-ATP, filtermat scintillation counting); type: biochemical; conditions: human recombinant MLK3, 120 minutes at room temperature
T1 construct: purchased Eurofins
Description: (§1) Compounds 1 to 119 synthesized in Example 1 according to the present disclosure were assayed for inhibitory activity against MLK3/LRRK2 enzymes and anticancer activity against HepG2/HS746T cancer cells, and the results are summarized in Table 1, below.
(§2) Inhibitory activity against MLK3 and LRRK2 enzymes was evaluated in Eurofins. In brief, human recombinant MLK3 protein was mixed with the compounds in a reaction buffer (8 mM MOPS (pH 7.0), 0.2 mM EDTA, 0.33 mg/mL myelin basic protein, 5 mM DTT) to which a mixture of 10 mM magnesium acetate and gamma-33P-ATP was then added before incubation at room temperature for 120 minutes. Afterward, the reaction was terminated with 0.5% phosphoric acid. Ten μL of the total mixture was spotted onto a P30 filtermat which was then washed four times for 4 minutes with 0.425% phosphoric acid and once in methanol prior to scintillation counting. Values for the activity of MLK3 were expressed as % of the control. For the activity of LRRK2, human recombinant LRRK2 protein was mixed with the compounds in a reaction buffer (50 mM HEPES (pH 8.0), 0.2 mM EDTA, 0.01% Brij-35, 1% (w/v) BSA, 5 mM DTT, 250 uM substrate peptide RLGRDKYKTLRQIRQ) and then reacted with a mixture of 10 mM magnesium acetate and gamma-33P-ATP at room temperature for 40 minutes. Afterward, the reaction was terminated with 0.5% phosphoric acid. Ten μL of the total mixture was spotted onto a P30 filtermat which was then washed four times for 4 minutes with 0.425% phosphoric acid and once in methanol prior to scintillation counting. Values for the activity of LRRK2 were expressed as % of the control.

[2] = molecular target: T2, human recombinant LRRK2 protein (Homo sapiens, UniProt Q5S007); test: LRRK2 kinase activity assay (Eurofins, gamma-33P-ATP, filtermat scintillation counting); type: biochemical; conditions: human recombinant LRRK2, 40 minutes at room temperature
T2 construct: purchased Eurofins
T2 sequence (Q5S007 whole entry): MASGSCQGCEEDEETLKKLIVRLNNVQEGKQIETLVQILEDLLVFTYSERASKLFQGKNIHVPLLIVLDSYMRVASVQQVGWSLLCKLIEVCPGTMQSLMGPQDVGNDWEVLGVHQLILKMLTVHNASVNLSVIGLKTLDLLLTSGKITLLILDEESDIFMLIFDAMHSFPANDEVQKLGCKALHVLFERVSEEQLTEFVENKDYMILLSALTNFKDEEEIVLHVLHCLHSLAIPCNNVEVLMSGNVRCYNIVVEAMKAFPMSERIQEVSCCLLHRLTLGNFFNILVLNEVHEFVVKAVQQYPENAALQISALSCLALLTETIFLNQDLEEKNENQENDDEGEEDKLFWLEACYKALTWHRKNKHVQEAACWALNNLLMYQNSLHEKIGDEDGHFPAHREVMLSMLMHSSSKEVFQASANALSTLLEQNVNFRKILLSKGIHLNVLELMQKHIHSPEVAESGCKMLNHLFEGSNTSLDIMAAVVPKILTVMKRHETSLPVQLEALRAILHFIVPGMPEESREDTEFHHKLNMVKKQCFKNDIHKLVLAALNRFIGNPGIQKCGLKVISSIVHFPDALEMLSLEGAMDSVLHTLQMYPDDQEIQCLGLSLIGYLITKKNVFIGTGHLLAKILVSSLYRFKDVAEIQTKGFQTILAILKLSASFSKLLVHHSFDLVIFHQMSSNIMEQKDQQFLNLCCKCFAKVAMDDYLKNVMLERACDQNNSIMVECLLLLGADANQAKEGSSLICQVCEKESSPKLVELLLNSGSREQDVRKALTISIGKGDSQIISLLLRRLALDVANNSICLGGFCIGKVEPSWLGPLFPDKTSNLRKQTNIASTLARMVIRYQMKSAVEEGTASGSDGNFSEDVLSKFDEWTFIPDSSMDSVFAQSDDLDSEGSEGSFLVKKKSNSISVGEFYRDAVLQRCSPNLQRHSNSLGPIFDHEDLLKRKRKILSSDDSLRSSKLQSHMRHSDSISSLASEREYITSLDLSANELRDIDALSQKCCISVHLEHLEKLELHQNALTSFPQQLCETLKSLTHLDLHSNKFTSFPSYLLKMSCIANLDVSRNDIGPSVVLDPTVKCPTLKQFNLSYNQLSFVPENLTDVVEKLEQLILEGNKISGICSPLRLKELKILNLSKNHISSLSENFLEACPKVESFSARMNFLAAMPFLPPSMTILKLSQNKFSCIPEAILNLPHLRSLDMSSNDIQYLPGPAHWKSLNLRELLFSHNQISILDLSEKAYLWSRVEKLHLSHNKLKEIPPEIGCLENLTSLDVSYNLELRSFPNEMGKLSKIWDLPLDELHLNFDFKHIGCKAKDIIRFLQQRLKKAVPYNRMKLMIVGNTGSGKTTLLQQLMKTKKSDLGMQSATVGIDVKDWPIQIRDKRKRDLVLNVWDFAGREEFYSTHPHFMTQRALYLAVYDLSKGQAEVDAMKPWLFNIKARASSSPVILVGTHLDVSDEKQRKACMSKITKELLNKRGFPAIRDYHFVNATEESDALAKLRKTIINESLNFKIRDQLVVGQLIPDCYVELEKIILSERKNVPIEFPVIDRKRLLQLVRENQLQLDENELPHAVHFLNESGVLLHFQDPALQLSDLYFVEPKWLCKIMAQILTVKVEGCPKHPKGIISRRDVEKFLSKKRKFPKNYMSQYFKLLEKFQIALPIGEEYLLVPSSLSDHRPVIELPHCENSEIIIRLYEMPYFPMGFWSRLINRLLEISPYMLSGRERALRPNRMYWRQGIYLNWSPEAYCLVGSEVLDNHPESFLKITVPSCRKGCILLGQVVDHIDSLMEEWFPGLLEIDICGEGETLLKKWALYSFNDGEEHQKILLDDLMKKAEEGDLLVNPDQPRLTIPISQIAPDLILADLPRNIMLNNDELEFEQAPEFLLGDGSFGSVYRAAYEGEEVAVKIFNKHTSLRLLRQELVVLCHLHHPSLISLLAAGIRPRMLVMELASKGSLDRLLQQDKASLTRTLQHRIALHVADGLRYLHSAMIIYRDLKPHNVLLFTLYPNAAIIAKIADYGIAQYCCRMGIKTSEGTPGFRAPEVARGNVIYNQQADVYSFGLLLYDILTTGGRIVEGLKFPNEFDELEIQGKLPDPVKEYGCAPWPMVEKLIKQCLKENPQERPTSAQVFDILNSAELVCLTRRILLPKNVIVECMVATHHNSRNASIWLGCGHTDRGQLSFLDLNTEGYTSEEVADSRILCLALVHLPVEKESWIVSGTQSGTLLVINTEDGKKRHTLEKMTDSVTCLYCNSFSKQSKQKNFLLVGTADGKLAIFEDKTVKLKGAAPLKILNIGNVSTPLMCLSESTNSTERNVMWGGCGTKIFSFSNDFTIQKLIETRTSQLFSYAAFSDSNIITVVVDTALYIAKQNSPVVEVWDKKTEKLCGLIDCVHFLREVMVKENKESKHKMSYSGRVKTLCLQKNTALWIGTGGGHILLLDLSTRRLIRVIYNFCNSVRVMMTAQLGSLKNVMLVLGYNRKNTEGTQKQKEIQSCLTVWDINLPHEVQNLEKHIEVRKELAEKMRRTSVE
Description: as §1, §2

HS746T cancer cells = test: Anticancer activity, cell viability by CCK-8, HS746T; type: cell-based; conditions: 72 hours
Description: Compounds 1 to 119 synthesized in Example 1 according to the present disclosure were assayed for inhibitory activity against MLK3/LRRK2 enzymes and anticancer activity against HepG2/H[…] cancer cells, and the results are summarized in Table 1, below. Assay for anticancer activity was conducted as follows. HepG2 and H[…] cancer cells were purchased from the Korean Cell Line Bank and cultured according to the instruction provided thereby. One hundred μL of a culture of the cells were seeded at a density of 4,000 cells/well into 96-well plates. After 24 hours, the cells were treated with the compounds for 72 hours. Then, cell viability was assayed using CCK-8 and expressed as % of the control.

T1 sequence (Q16584 whole entry): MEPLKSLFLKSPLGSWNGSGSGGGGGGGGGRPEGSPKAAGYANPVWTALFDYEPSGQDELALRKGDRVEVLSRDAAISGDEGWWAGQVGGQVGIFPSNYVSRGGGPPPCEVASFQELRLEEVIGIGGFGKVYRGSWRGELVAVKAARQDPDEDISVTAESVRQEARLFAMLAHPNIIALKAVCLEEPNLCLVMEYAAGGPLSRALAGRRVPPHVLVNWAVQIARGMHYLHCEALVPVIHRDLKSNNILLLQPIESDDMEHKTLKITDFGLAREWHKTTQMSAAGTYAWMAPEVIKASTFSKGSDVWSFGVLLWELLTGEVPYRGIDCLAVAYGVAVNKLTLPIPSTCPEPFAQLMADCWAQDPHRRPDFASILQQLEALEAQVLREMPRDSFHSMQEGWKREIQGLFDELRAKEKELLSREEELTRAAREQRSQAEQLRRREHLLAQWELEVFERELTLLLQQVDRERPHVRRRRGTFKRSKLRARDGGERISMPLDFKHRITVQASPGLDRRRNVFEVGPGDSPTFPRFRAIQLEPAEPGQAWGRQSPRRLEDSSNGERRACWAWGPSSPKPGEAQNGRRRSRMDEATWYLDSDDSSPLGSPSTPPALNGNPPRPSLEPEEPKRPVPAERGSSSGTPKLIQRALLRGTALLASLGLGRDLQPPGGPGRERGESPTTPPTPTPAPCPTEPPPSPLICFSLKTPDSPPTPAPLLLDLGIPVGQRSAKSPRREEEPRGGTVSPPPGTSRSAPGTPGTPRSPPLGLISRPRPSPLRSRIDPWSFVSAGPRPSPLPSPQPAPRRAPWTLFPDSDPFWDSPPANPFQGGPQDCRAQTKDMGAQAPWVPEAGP

Structure (SMILES)	IC50 [1]	IC50 [2]	Cell viability (% of Con. 10 μM) HS746T (HS746T cancer cells)
CC(C)S(=O)(=O)c1ccccc1Nc1nc(Nc2cc(Cl)cc(Cl)c2)ncc1Cl [compound 2, 5-Chloro-N^2-(3,5-dichlorophenyl)-N^4-(2-(isopropylsulfonyl)phenyl) pyrimidine-2,4-diamine]	0.1 to 1 µM	0.1 to 1 µM	–
Cc1cc(C)cc(Nc2ncc(Cl)c(Nc3ccccc3S(=O)(=O)C(C)C)n2)c1 [compound 3, 5-Chloro-N^2-(3,5-dimethylphenyl)-N^4-(2-(isopropylsulfonyl)phenyl) pyrimidine-2,4-diamine]	0.1 to 1 µM	0.1 to 1 µM	–
CC(C)S(=O)(=O)c1ccccc1Nc1nc(Nc2cc(F)c(Br)c(F)c2)ncc1Cl [compound 4, N^2-(4-Bromo-3,5-difluorophenyl)-5-chloro-N^4-(2-(isopropylsulfonyl)phenyl)pyrimidine-2,4-diamine]	0.1 to 1 µM	0.01 to 0.1 µM	–
CC(C)S(=O)(=O)c1ccccc1Nc1nc(Nc2cc(C(F)(F)F)cc(C(F)(F)F)c2)ncc1Cl [compound 5, N^2-(3,5-bis(trifluoromethyl)phenyl)-5-chloro-N^4-(2-(isopropylsulfonyl)phenyl)pyrimidine-2,4-diamine]	0.01 to 0.1 µM	0.1 to 1 µM	–
CC(C)S(=O)(=O)c1ccccc1Nc1nc(Nc2cc(F)cc(F)c2)ncc1Cl [compound 6, 5-Chloro-N^2-(3,5-difluorophenyl)-N^4-(2-(isopropylsulfonyl)phenyl) pyrimidine-2,4-diamine]	0.1 to 1 µM	0.1 to 1 µM	–
Cn1ncc2cc(Nc3ncc(Cl)c(Nc4ccccc4P(C)(C)=O)n3)cnc21 [compound 78]	0.01 to 0.1 µM	0.001 to 0.01 µM	17 % of Con.
CP(C)(=O)c1ccccc1Nc1nc(Nc2cnc3[nH]ccc3c2)ncc1Cl [compound 79, (2-((2-((1H-Pyrrolo[2,3-b]pyridin-5-yl)amino)-5-chloropyrimidin-4-yl)amino)phenyl)dimethylphosphine oxide]	0.01 to 0.1 µM	0.001 to 0.01 µM	19 % of Con.
CP(C)(=O)c1ccccc1Nc1nc(Nc2cnc3[nH]ncc3c2)ncc1Cl [compound 82, (2-((2-((1H-Pyrazolo[3,4-b]pyridin-5-yl)amino)-5-chloropyrimidin-4-yl)amino)phenyl)dimethylphosphine oxide]	0.01 to 0.1 µM	0.01 to 0.1 µM	18 % of Con.
CP(C)(=O)c1ccccc1Nc1nc(Nc2ccc3[nH]nc(-c4cccnc4F)c3c2)ncc1Cl [compound 83, (2-((5-Chloro-2-((3-(2-fluoropyridin-3-yl)-1H-indazol-5-yl)amino)pyrimidin-4-yl)amino)phenyl)dimethylphosphine oxide]	0.001 to 0.01 µM	0.001 to 0.01 µM	11 % of Con.
CP(C)(=O)c1ccccc1Nc1nc(Nc2ccc3[nH]nc(-c4cn[nH]c4)c3c2)ncc1Cl [compound 84, (2-((2-((3-(1H-Pyrazol-4-yl)-1H-indazol-5-yl)amino)-5-chloropyrimidin-4-yl)amino)phenyl)dimethylphosphine oxide]	0.001 to 0.01 µM	0.001 to 0.01 µM	11 % of Con.
CC(C)(C)OC(=O)N1CC=C(c2n[nH]c3ccc(Nc4ncc(Cl)c(Nc5ccccc5P(C)(C)=O)n4)cc23)CC1 [compound 85, Tert-butyl 4-(5-((5-chloro-4-((2-(dimethylphosphoryl)phenyl)amino)pyrimidin-2-yl)amino)-1H-indazol-3-yl)-3,6-dihydropyridine-1(2H)-carboxylate]	0.001 to 0.01 µM	0.001 to 0.01 µM	6 % of Con.
CP(C)(=O)c1ccccc1Nc1nc(Nc2ccc3[nH]nc(C4=CCNCC4)c3c2)ncc1Cl [compound 91]	0.001 to 0.01 µM	0.001 to 0.01 µM	5.8 % of Con.
